Tests used:
[1] = tested on: Alzheimer's disease model mice (3×Tg); assay: Cognitive ability test (Morris water maze) in Alzheimer's disease models; type: in vivo, mouse; details: 3×Tg mice, oral 0.1 mg/kg/day; test for 7 days
Excerpt: (§1) In order to investigate the changes in gene expression and cognitive ability by the treatment with SL (3′-SL & 6′-SL) compositions in Alzheimer's brain disease models, 6-week-old mice were purchased from Central Lab Animal (Korea). Water was freely accessible, and a commercially available pellet feed (Dooyeul Biotech, Korea) was given for two weeks. At 8 weeks of age, the mice were divided into three groups (composed of eight mice for each group): Eight 8-week-old male c57/BL6 mice (normal mice; initial body weight, average 35.6±3.3 g) treated with a normal diet were used for a control group. […]

PGC-1α and related genes = assay: Gene expression in brain and hippocampus of Alzheimer's disease models; type: in vivo, mouse; details: 3×Tg mice, oral 0.1 mg/kg/day, 10 weeks
Excerpt: as §1
Sialyllactose or DW was orally administered daily. […] The dietary intake and body weight change were measured every 5 days. […]
The gene expression changes by the treatment with SL (3′-SL & 6′-SL) compositions were quantitatively compared in two main organs (brain and hippocampus) associated with bran diseases. […] RNA was extracted by TRIzol agent (Invitrogen). cDNA was synthesized by using RNA, which has been extracted as above and quantified, and a reverse transcription system (Promega, USA). The expression patterns of PGC-1α and related genes were measured by using pre-designed primers and probes (Applied Biosystems; PGC-1α, Mm00447181_m1, GAPDH, and Mm99999915_q1) for the synthesized cDNA and analysis targets (Fndc5, PGC-1α, Erra, UCP1, BDNF, SOD2, and GPX1). […]

ICH models = assay: Modified limb placing test (MLPT) in intracerebral hemorrhage (ICH) models; type: in vivo, rat; details: first day and third day after ICH induction; intraperitoneal
Excerpt: In order to investigate the changes in ischemic volume and modified limb placing test (MLPT) score by treatment with SL (3′-SL & 6′-SL) compositions in stroke models, 4-week-old mice were purchased from Central Lab Animal (Korea). Water was freely accessible, and a commercially available pellet feed (Dooyeul Biotech, Korea) was given for one week. Stroke models involving temporary and permanent middle cerebral artery (MCA) occlusion and intracerebral hemorrhage (ICH) were fabricated using 6-week-old male Sprague-Dawley rats (weight, average 185.3±15.8 g) and male BALB/c mice weight, average 24.6±3.8 g). […] The model was suspended at 10 cm above a table, and the stretch of the forelimbs toward the table was scored (0 points for normal stretch and 1 point for abnormal fexion). […] The evaluation results for three tasks were scored in the following manner: 0 points for normal performance, 1 point for performance with a delay (at least 2 seconds) or incomplete performance, and 2 points for no performance. […]

Structure (SMILES) | escape time in the cognitive ability test (Morris water maze) [1] | expression levels of PGC-1α and related genes vs SL non-administration (Alzheimer's disease model) group (PGC-1α and related genes) | MLPT test score vs control group (neurodegeneration inhibitory effects) (ICH models) | expression levels of PGC-1α and related genes vs normal control group (PGC-1α and related genes)
CC(=O)N[C@H]1[C@H]([C@H](O)[C@H](O)CO)O[C@@](O[C@H]2[C@@H](O)[C@@H](CO)O[C@@H](O[C@H]3[C@H](O)[C@@H](O)C(O)O[C@@H]3CO)[C@@H]2O)(C(=O)O)C[C@@H]1O (stereo partly drawn) [3′-SL, α-NeuNAc-(2→3)-β-D-Gal-(1→4)-D-Glc] | relatively low compared with 6′-SL | relatively low compared with 6′-SL | relatively low compared with 6′-SL | –
CC(=O)N[C@H]1[C@H]([C@H](O)[C@H](O)CO)O[C@@](OC[C@H]2O[C@@H](O[C@H]3[C@H](O)[C@@H](O)[C@H](O)O[C@@H]3CO)[C@H](O)[C@@H](O)[C@H]2O)(C(=O)O)C[C@@H]1O [6′-SL, α-NeuNAc-(2→6)-β-D-Gal-(1→4)-D-Glc] | definitely fast | very high | lower | somewhat lower
